Measurements taken from PubChem BioAssay (NCI).
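The compound was tested at five concentrations on cells cultured in 96-well plates, with a 48-hour exposure period. Here, GI50 denotes the concentration required for 50% inhibition of growth. TGI: concentration producing complete growth inhibition.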

Legend:
Assay in all cases: DTP human tumour cell line panel, 48 h
[1] = system: 786-0 renal
[2] = system: A498 renal
[3] = system: A549 NSCLC
[4] = system: ACHN renal
[5] = system: BT-549 breast
[6] = system: CAKI-1 renal
[7] = system: CCRF-CEM leukemia
[8] = system: COLO 205 colon
[9] = system: DU-145 prostate
[10] = system: EKVX NSCLC
[11] = system: HCC-2998 colon
[12] = system: HCT-116 colon
[13] = system: HCT-15 colon
[14] = system: HL-60(TB) leukemia
[15] = system: HOP-62 NSCLC
[16] = system: HOP-92 NSCLC
[17] = system: HS 578T breast
[18] = system: HT29 colon
[19] = system: IGROV1 ovarian
[20] = system: K-562 leukemia
[21] = system: KM12 colon
[22] = system: LOX IMVI melanoma
[23] = system: M14 melanoma
[24] = system: MALME-3M melanoma
[25] = system: MCF7 breast
[26] = system: MDA-MB-231 breast
[27] = system: MDA-MB-435
[28] = system: MDA-N
[29] = system: MOLT-4 leukemia
[30] = system: NCI-H226 lung
[31] = system: NCI-H23 lung
[32] = system: NCI-H460 lung
[33] = system: NCI-H522 lung
[34] = system: NCI/ADR-RES ovarian
[35] = system: OVCAR-3 ovarian
[36] = system: OVCAR-4 ovarian
[37] = system: OVCAR-5 ovarian
[38] = system: OVCAR-8 ovarian
[39] = system: PC-3 prostate
[40] = system: RPMI-8226 leukemia
[41] = system: RXF 393 renal
[42] = system: SF-268 CNS
[43] = system: SF-295 CNS
[44] = system: SF-539 CNS
[45] = system: SK-MEL-2 melanoma
[46] = system: SK-MEL-28 melanoma
[47] = system: SK-MEL-5 melanoma
[48] = system: SK-OV-3 ovarian
[49] = system: SN12C renal
[50] = system: SNB-19 CNS
[51] = system: SNB-75 CNS
[52] = system: SR leukemia
[53] = system: SW-620 colon
[54] = system: T-47D breast
[55] = system: TK-10 renal
[56] = system: U251 CNS
[57] = system: UACC-257 melanoma
[58] = system: UACC-62 melanoma
[59] = system: UO-31 renal

Structure (SMILES): C=C(Cl)C(Cl)(CBr)CCCC(C)(C)Cl (centres undefined)
- TGI [1]: 18 µM
- TGI [2]: 33.9 µM
- TGI [3]: 32.1 µM
- TGI [4]: 19.6 µM
- TGI [5]: > 100 µM
- TGI [6]: 3.8 µM
- TGI [7]: > 62.3 µM
- TGI [8]: 20.8 µM
- TGI [9]: 23.5 µM
- TGI [10]: 32.6 µM
- TGI [11]: 29.5 µM
- TGI [12]: 30.8 µM
- TGI [13]: 70.8 µM
- TGI [14]: 3.22 µM
- TGI [15]: 9.16 µM
- TGI [16]: 6.33 µM
- TGI [17]: 12.7 µM
- TGI [18]: 4.28 µM
- TGI [19]: > 75.3 µM
- TGI [20]: > 66.8 µM
- TGI [21]: 3.6 µM
- TGI [22]: 40.9 µM
- TGI [23]: > 100 µM
- TGI [24]: > 55.1 µM
- TGI [25]: 20.2 µM
- TGI [26]: > 59 µM
- TGI [27]: > 73.3 µM
- TGI [28]: > 79.5 µM
- TGI [29]: > 100 µM
- TGI [30]: > 100 µM
- TGI [31]: > 100 µM
- TGI [32]: 17.7 µM
- TGI [33]: 28.1 µM
- TGI [34]: > 74.1 µM
- TGI [35]: 6.51 µM
- TGI [36]: 17 µM
- TGI [37]: 33 µM
- TGI [38]: 52.6 µM
- TGI [39]: 9.36 µM
- TGI [40]: 4.03 µM
- TGI [41]: > 100 µM
- TGI [42]: 38.3 µM
- TGI [43]: 19.8 µM
- TGI [44]: 4.93 µM
- TGI [45]: 32.3 µM
- TGI [46]: 25.4 µM
- TGI [47]: > 90.8 µM
- TGI [48]: > 100 µM
- TGI [49]: > 100 µM
- TGI [50]: 30.1 µM
- TGI [51]: 37.6 µM
- TGI [52]: > 100 µM
- TGI [53]: 41.4 µM
- TGI [54]: 4.15 µM
- TGI [55]: 4.54 µM
- TGI [56]: 4.16 µM
- TGI [57]: 13.8 µM
- TGI [58]: 42.3 µM
- TGI [59]: 29.3 µM

Structure (SMILES): O=C(O)c1ccc(C(=O)Nc2cccc3ccccc23)c(C(=O)O)c1
- TGI [1]: > 100 µM
- TGI [2]: > 100 µM
- TGI [3]: > 100 µM
- TGI [4]: > 100 µM
- TGI [5]: > 100 µM
- TGI [6]: > 100 µM
- TGI [7]: > 100 µM
- TGI [8]: > 100 µM
- TGI [9]: > 100 µM
- TGI [10]: > 100 µM
- TGI [11]: > 100 µM
- TGI [12]: > 100 µM
- TGI [13]: > 100 µM
- TGI [14]: > 100 µM
- TGI [15]: > 100 µM
- TGI [16]: > 100 µM
- TGI [17]: > 100 µM
- TGI [18]: > 100 µM
- TGI [19]: > 100 µM
- TGI [20]: > 100 µM
- TGI [21]: > 100 µM
- TGI [22]: > 100 µM
- TGI [23]: > 100 µM
- TGI [24]: > 100 µM
- TGI [25]: > 100 µM
- TGI [26]: > 100 µM
- TGI [27]: > 100 µM
- TGI [28]: > 100 µM
- TGI [29]: > 100 µM
- TGI [30]: > 100 µM
- TGI [31]: > 100 µM
- TGI [32]: > 100 µM
- TGI [33]: > 100 µM
- TGI [34]: > 100 µM
- TGI [35]: > 100 µM
- TGI [36]: > 100 µM
- TGI [37]: > 100 µM
- TGI [38]: > 100 µM
- TGI [39]: > 100 µM
- TGI [40]: > 100 µM
- TGI [41]: > 100 µM
- TGI [42]: > 100 µM
- TGI [43]: > 100 µM
- TGI [44]: > 100 µM
- TGI [45]: > 100 µM
- TGI [46]: > 100 µM
- TGI [47]: > 100 µM
- TGI [48]: > 100 µM
- TGI [49]: > 100 µM
- TGI [50]: > 100 µM
- TGI [51]: > 100 µM
- TGI [52]: > 100 µM
- TGI [53]: > 100 µM
- TGI [54]: > 100 µM
- TGI [55]: > 100 µM
- TGI [56]: > 100 µM
- TGI [57]: > 100 µM
- TGI [58]: > 100 µM
- TGI [59]: > 100 µM

Structure (SMILES): Cc1nc2ccccc2nc1NNc1ccccc1
- TGI [1]: > 92.1 µM
- TGI [2]: > 94.5 µM
- TGI [3]: > 95.9 µM
- TGI [4]: 85.9 µM
- TGI [5]: 70 µM
- TGI [6]: > 100 µM
- TGI [7]: 78.7 µM
- TGI [8]: 1.03 µM
- TGI [9]: > 86.1 µM
- TGI [10]: 68.2 µM
- TGI [11]: > 100 µM
- TGI [12]: > 100 µM
- TGI [13]: > 82.6 µM
- TGI [14]: 58.8 µM
- TGI [15]: 86.6 µM
- TGI [16]: 57 µM
- TGI [17]: > 95.1 µM
- TGI [18]: 18.7 µM
- TGI [19]: 73.3 µM
- TGI [20]: 74.5 µM
- TGI [21]: 63.4 µM
- TGI [22]: 70.7 µM
- TGI [23]: 64.8 µM
- TGI [24]: 69.5 µM
- TGI [25]: > 100 µM
- TGI [26]: 70.7 µM
- TGI [27]: 41.7 µM
- TGI [28]: 48.9 µM
- GI50 [29]: 12.1 µM
- TGI [29]: 40.7 µM
- TGI [30]: 85.7 µM
- TGI [31]: 77.2 µM
- TGI [32]: > 88.7 µM
- TGI [33]: > 88.4 µM
- TGI [34]: 75.8 µM
- TGI [35]: 70.4 µM
- TGI [36]: > 87.8 µM
- TGI [37]: > 84.4 µM
- TGI [38]: 77.8 µM
- TGI [39]: > 84.4 µM
- TGI [40]: 41 µM
- GI50 [41]: 18.6 µM
- TGI [41]: 78.7 µM
- TGI [42]: > 100 µM
- TGI [43]: > 93.6 µM
- TGI [44]: > 96.2 µM
- TGI [45]: > 80.8 µM
- TGI [46]: > 96.7 µM
- TGI [47]: 31.5 µM
- GI50 [48]: 24.8 µM
- TGI [48]: > 100 µM
- TGI [49]: 72.9 µM
- TGI [50]: > 100 µM
- TGI [51]: > 84.9 µM
- TGI [52]: 74.5 µM
- TGI [53]: > 74.9 µM
- TGI [54]: 46.9 µM
- TGI [55]: 98.7 µM
- TGI [56]: > 93.5 µM
- TGI [57]: 74.3 µM
- TGI [58]: 43.4 µM
- TGI [59]: > 86.5 µM

Structure (SMILES): CC1(C)OCC(C2OC3OC(C)(C)OC3C2N)O1 (centres undefined)
- TGI [1]: > 100 µM
- TGI [2]: > 100 µM
- TGI [3]: > 100 µM
- TGI [4]: > 100 µM
- TGI [5]: > 100 µM
- TGI [6]: > 100 µM
- TGI [7]: > 100 µM
- TGI [8]: > 100 µM
- TGI [9]: > 100 µM
- TGI [10]: > 100 µM
- TGI [11]: > 100 µM
- TGI [12]: > 100 µM
- TGI [13]: > 100 µM
- TGI [14]: > 100 µM
- TGI [15]: > 100 µM
- TGI [16]: > 100 µM
- TGI [17]: > 100 µM
- TGI [18]: > 100 µM
- TGI [19]: > 100 µM
- TGI [20]: > 100 µM
- TGI [21]: > 100 µM
- TGI [22]: > 100 µM
- TGI [23]: > 100 µM
- TGI [24]: > 100 µM
- TGI [25]: > 100 µM
- TGI [26]: > 100 µM
- TGI [27]: > 100 µM
- TGI [28]: > 100 µM
- TGI [29]: > 100 µM
- TGI [30]: > 100 µM
- TGI [31]: > 100 µM
- TGI [32]: > 100 µM
- TGI [33]: > 100 µM
- TGI [34]: > 100 µM
- TGI [35]: > 100 µM
- TGI [36]: > 100 µM
- TGI [37]: > 100 µM
- TGI [38]: > 100 µM
- TGI [39]: > 100 µM
- TGI [40]: > 100 µM
- TGI [41]: > 100 µM
- TGI [42]: > 100 µM
- TGI [43]: > 100 µM
- TGI [44]: > 100 µM
- TGI [45]: > 100 µM
- TGI [46]: > 100 µM
- TGI [47]: > 100 µM
- TGI [48]: > 100 µM
- TGI [49]: > 100 µM
- TGI [50]: > 100 µM
- TGI [51]: > 100 µM
- TGI [52]: > 100 µM
- TGI [53]: > 100 µM
- TGI [54]: > 100 µM
- TGI [55]: > 100 µM
- TGI [56]: > 100 µM
- TGI [57]: > 100 µM
- TGI [58]: > 100 µM
- TGI [59]: > 100 µM
